From patent US20250361230A1, “LATS Inhibitors and Uses Thereof” (The USA, as Represented by the Secretary, Dept. of Heath …, priority 2022, published 2025)

Key:
Assay type in all cases: biochemical
LATS1 = target: T1, LATS1 (Homo sapiens, UniProt O95835); assay: RBC HotSpot kinase assay (33P-ATP, P81 filter-binding), LATS1; conditions: Table 28, biochemical kinase assay; read-out: LATS1 IC50
T1 sequence (O95835 1-1130): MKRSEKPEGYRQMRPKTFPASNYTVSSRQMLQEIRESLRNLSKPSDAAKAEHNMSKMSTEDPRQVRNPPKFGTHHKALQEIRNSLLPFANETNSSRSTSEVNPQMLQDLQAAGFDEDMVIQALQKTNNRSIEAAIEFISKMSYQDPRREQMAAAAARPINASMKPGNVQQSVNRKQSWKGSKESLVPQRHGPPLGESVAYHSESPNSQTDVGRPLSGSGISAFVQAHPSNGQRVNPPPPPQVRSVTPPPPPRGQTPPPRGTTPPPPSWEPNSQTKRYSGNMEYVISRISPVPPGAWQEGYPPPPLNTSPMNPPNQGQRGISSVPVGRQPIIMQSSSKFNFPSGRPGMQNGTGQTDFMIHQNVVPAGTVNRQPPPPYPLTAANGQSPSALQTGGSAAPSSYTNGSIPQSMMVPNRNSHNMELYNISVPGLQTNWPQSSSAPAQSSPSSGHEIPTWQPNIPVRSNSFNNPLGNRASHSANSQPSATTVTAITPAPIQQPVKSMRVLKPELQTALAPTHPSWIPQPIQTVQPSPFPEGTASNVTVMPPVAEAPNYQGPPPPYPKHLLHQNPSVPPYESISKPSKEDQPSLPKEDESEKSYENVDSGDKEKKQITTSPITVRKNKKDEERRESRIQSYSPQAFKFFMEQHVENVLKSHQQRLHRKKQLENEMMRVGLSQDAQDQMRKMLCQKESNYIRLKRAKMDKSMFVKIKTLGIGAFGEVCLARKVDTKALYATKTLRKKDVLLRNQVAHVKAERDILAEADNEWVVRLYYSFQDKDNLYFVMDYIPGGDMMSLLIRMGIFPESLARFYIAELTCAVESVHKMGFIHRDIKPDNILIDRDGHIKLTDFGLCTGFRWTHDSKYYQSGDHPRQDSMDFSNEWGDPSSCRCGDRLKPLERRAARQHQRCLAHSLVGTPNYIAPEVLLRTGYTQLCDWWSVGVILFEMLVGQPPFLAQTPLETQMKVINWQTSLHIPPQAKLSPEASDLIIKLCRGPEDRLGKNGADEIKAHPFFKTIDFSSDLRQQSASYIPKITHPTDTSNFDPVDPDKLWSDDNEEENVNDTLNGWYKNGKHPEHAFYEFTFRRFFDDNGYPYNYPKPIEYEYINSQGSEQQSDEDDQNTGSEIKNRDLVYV
Procedure, shortened: (§1)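 Hepes pH 7.5/MgCl2/EGTA/Brij35/BSA/Na3VO4/DTT buffer, cofactors per kinase; cpd acoustically dispensed, 20 min preinc RT; start w/ 33P-ATP, 2 h RT; P81 filter readout; 10-pt singlet IC50.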

LATS2 = target: T2, LATS2 (Homo sapiens, UniProt Q9NRM7); assay: RBC HotSpot kinase assay (33P-ATP, P81 filter-binding), LATS2; conditions: Table 28, biochemical kinase assay; read-out: LATS2 IC50
T2 sequence (Q9NRM7 1-1088): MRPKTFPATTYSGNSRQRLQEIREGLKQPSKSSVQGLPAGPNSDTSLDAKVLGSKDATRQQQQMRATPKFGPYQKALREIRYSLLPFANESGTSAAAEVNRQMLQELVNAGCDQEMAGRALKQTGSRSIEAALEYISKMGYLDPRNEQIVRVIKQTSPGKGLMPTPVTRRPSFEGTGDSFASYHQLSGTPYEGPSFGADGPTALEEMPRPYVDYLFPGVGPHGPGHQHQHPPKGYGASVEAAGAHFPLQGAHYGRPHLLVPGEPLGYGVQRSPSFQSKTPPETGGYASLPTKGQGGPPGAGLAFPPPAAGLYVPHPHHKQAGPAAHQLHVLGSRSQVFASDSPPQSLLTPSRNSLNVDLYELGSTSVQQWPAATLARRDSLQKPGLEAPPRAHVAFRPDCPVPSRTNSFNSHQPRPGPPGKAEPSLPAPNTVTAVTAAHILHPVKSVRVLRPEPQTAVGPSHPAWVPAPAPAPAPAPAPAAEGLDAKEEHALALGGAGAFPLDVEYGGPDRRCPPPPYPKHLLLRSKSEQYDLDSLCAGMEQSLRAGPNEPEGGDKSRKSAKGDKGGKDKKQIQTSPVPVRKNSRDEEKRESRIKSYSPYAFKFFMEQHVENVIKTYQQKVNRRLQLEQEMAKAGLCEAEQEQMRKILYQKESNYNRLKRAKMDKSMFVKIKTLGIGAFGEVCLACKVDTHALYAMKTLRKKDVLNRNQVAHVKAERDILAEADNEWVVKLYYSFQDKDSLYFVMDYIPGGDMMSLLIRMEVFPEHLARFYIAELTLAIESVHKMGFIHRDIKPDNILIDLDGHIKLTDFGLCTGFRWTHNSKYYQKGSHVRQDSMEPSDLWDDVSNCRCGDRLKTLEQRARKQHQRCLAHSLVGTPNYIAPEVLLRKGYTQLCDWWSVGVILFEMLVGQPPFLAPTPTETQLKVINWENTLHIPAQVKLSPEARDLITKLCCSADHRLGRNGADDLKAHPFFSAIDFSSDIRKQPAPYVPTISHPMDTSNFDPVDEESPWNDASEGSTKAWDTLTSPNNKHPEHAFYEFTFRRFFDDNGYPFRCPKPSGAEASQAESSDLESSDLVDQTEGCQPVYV
Procedure, shortened: as §1

AKT = AKT (Homo sapiens, UniProt P31749); assay: RBC HotSpot kinase assay (33P-ATP, P81 filter-binding), AKT; conditions: Table 28, biochemical kinase assay; read-out: AKT IC50
Procedure, shortened: as §1

Sequence of AKT (P31749 whole entry): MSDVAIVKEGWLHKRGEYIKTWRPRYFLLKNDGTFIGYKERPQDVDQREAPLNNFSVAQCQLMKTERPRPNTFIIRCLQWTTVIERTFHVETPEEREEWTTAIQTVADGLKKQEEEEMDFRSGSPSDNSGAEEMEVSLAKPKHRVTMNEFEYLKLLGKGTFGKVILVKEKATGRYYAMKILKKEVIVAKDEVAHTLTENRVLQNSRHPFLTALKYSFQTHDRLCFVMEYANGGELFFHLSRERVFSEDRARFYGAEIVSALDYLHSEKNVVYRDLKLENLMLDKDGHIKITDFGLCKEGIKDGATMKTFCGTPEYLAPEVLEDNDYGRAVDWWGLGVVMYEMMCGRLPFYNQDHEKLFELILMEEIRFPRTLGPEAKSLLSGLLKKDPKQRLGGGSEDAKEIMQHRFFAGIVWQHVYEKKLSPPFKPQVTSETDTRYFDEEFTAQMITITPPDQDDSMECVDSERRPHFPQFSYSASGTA

SMILES | IC50 (LATS1) | IC50 (LATS2) | IC50 (AKT)
C[C@@H]1CNC[C@H](C)[C@@]1(O)c1ccc(-c2ccnc3[nH]cc(F)c23)cc1Cl [Compound 1, (3S,4S,5R)-4-(2-chloro-4-(3-fluoro-1H-pyrrolo[2,3-b]pyridin-4-yl)phenyl)-3,5-dimethylpiperidin-4-ol] | 11.3 nM | 14.6 nM | 15.4 nM
C[C@@H]1CNC[C@H](C)[C@@]1(O)c1ccc(-c2ccnc3[nH]cc(F)c23)cc1 [Compound 2, (3R,4s,5S)-4-(4-(3-fluoro-1H-pyrrolo[2,3-b]pyridin-4-yl)phenyl)-3,5-dimethylpiperidin-4-ol] | 16 nM | 12.5 nM | 147 nM
C[C@@H]1CNC[C@H](C)[C@@]1(O)c1ccc(-c2ccnc3[nH]cc(F)c23)cc1F [Compound 7, (3S,4s,5R)-4-(2-fluoro-4-(3-fluoro-1H-pyrrolo[2,3-b]pyridin-4-yl)phenyl)-3,5-dimethyl piperidin-4-ol] | 15.9 nM | 6.3 nM | 192 nM
C[C@@H]1CNC[C@H](C)[C@@]1(O)c1ccc(-c2ccnc3[nH]cc(F)c23)nc1 [Compound 8, (3S,4s,5R)-4-(6-(3-fluoro-1H-pyrrolo[2,3-b]pyridin-4-yl)pyridin-3-yl)-3,5-dimethylpiperidin-4-ol] | 53 nM | 203 nM | 3330 nM
Cc1cc(-c2ccnc3[nH]cc(F)c23)ccc1[C@@]1(O)[C@H](C)CNC[C@@H]1C [Compound 9, (3S,4s,5R)-4-(4-(3-fluoro-1H-pyrrolo[2,3-b]pyridin-4-yl)-2-methylphenyl)-3,5-dimethylpiperidin-4-ol] | 9.4 nM | 6.6 nM | 89.2 nM
C[C@@H]1CNC[C@H](C)[C@@]1(O)c1c(F)cc(-c2ccnc3[nH]cc(F)c23)cc1F [Compound 13] | 8.5 nM | 7.2 nM | 362 nM
C[C@@H]1CNC[C@H](C)[C@@]1(O)c1ccc(-c2ccnc3[nH]cc(F)c23)cc1OC(F)(F)F [Compound 14, (3S,4s,5R)-4-(4-(3-fluoro-1H-pyrrolo[2,3-b]pyridin-4-yl)-2-(trifluoromethoxy)phenyl)-3,5-dimethylpiperidin-4-ol] | 5.4 nM | 5.5 nM | 112 nM
C[C@@H]1CN(Cc2ccccn2)C[C@H](C)[C@@]1(O)c1c(F)cc(-c2ccnc3[nH]cc(F)c23)cc1F [Compound 17, (3S,4s,5R)-4-(2,6-difluoro-4-(3-fluoro-1H-pyrrolo[2,3-b]pyridin-4-yl)phenyl)-3,5-dimethyl-1-(pyridin-2-ylmethyl)piperidin-4-ol] | 10.9 nM | 11.9 nM | 1070 nM
C[C@@H]1CN(C)C[C@H](C)[C@@]1(O)c1cnc(-c2ccnc3[nH]cc(F)c23)cc1Cl [Compound 22, (3S,4s,5R)-4-(4-chloro-6-(3-fluoro-1H-pyrrolo[2,3-b]pyridin-4-yl)pyridin-3-yl)-1,3,5-trimethylpiperidin-4-ol] | 1.1 nM | 4.1 nM | 505 nM
Cc1cc(-c2ccnc3[nH]cc(F)c23)ccc1[C@@]1(O)[C@H](C)CN(C2COC2)C[C@@H]1C [Compound 24, (3S,4s,5R)-4-(4-(3-fluoro-1H-pyrrolo[2,3-b]pyridin-4-yl)-2-methylphenyl)-3,5-dimethyl-1-(oxetan-3-yl)piperidin-4-ol] | 5.7 nM | 5.7 nM | 374 nM
Cc1cc(-c2ccnc3[nH]cc(F)c23)ccc1[C@@]1(O)[C@H](C)CN(C(C)C)C[C@@H]1C [Compound 29, (3S,4s, 5R)-4-(4-(3-fluoro-1H-pyrrolo[2,3-b]pyridin-4-yl)-2-methylphenyl)-1-isopropyl-3,5-dimethylpiperidin-4-ol] | 1.3 nM | 2.2 nM | 43.5 nM
Cc1cc(-c2ccnc3[nH]cc(F)c23)cc(F)c1C1(O)[C@H](C)CN(C2COC2)C[C@@H]1C (stereo partly drawn) [Compound 30, (3S,5R)-4-(2-fluoro-4-(3-fluoro-1H-pyrrolo[2,3-b]pyridin-4-yl)-6-methylphenyl)-3,5-dimethyl-1-(oxetan-3-yl)piperidin-4-ol] | 5.9 nM | 9 nM | 698 nM
C[C@@H]1CN(C2CCS(=O)(=O)CC2)C[C@H](C)C1(O)c1c(F)cc(-c2ccnc3[nH]cc(F)c23)cc1F (stereo partly drawn) [Compound 31, 4-((3S,5R)-4-(2,6-difluoro-4-(3-fluoro-1H-pyrrolo[2,3-b]pyridin-4-yl)phenyl)-4-hydroxy-3,5-dimethylpiperidin-1-yl)tetrahydro-2H-thiopyran 1,1-dioxide] | 6.7 nM | 6.3 nM | 129 nM
C[C@@H]1CN(C)C[C@H](C)[C@@]1(O)c1ccc(-c2ccnc3[nH]cc(F)c23)cc1 [Compound 39, (3R,4s,5S)-4-(4-(3-fluoro-1H-pyrrolo[2,3-b]pyridin-4-yl)phenyl)-1,3,5-trimethylpiperidin-4-ol] | 19.5 nM | 24.7 nM | 213 nM
C[C@@H]1CN(C)C[C@H](C)[C@@]1(O)c1ccc(-c2ccnc3[nH]cc(F)c23)nc1 [Compound 41, (3R,4s,5S)-4-(6-(3-fluoro-1H-pyrrolo[2,3-b]pyridin-4-yl)pyridin-3-yl)-1,3,5-trimethylpiperidin-4-ol] | 61 nM | 268 nM | 4140 nM
C[C@@H]1CN(C2COC2)C[C@H](C)[C@@]1(O)c1c(F)cc(-c2ccnc3[nH]cc(F)c23)cc1F [Compound 45, (3S,4s,5R)-4-(2,6-difluoro-4-(3-fluoro-1H-pyrrolo[2,3-b]pyridin-4-yl)phenyl)-3, S-dimethyl-1-(oxetan-3-yl)piperidin-4-ol] | 3.4 nM | 9.8 nM | 1170 nM
C[C@@H]1CN(C2CCC2)C[C@H](C)[C@@]1(O)c1c(F)cc(-c2ccnc3[nH]cc(F)c23)cc1F [Compound 46, (3R,4s,5S)-1-cyclobutyl-4-(2,6-difluoro-4-(3-fluoro-1H-pyrrolo[2,3-b]pyridin-4-yl)phenyl)-3,5-dimethylpiperidin-4-ol] | 1.7 nM | 4 nM | 358 nM
Cc1cc(-c2ccnc3[nH]cc(F)c23)ncc1[C@@]1(O)[C@H](C)CN(C2CCC2)C[C@@H]1C [Compound 48, (3R,4s,5S)-1-cyclobutyl-4-(6-(3-fluoro-1H-pyrrolo[2,3-b]pyridin-4-yl)-4-methylpyridin-3-yl)-3,5-dimethylpiperidin-4-ol] | 2.9 nM | 16.1 nM | 6110 nM
